Assay results from PMC4835159 (Journal of Medicinal Chemistry, 2016).
Converted amounts (≈) assume the structure as drawn. “And” between values parts separate entries of the source, which are not always exact repeats. Identical values can stand only once. Like-named read-outs stand apart in the source and are kept apart here.

How the values were obtained:
CYP121 [1] = molecular target: T1, CYP121 (Mycobacterium tuberculosis, UniProt P9WPP7); format: binding
Mtb H37Rv = test: Antimycobacterial activity assay (MIC90); format: cell-based, Mycobacterium tuberculosis; parameters: key to MIC90: “N” indicates that compounds did not produce any significant cell death within the tested concentration range; conditions: triplicate, 0–100 μM, 2 weeks
CYP121 [2] = molecular target: T1, CYP121; test: Single shot UV–vis absorbance assay (Soret band shift, competition with type II inhibitor) on CYP121; format: binding; conditions: for Δλmax (change in wavelength of the Soret band): CYP121 5 μM, vs 1% v/v DMSO-d6 alone (λmax = 416.5 nm), single shot; for shifts in the CYP121 optical spectrum: UV–vis spectroscopy
CYP121 [3] = molecular target: T1, CYP121; test: Native mass spectrometry of CYP121 with ligands; format: binding
CYP125 = molecular target: T2, CYP125 (Mycobacterium tuberculosis, UniProt P9WPP1); test: Single shot UV–vis binding mode assay on CYP125
T2 sequence (P9WPP1 1-433): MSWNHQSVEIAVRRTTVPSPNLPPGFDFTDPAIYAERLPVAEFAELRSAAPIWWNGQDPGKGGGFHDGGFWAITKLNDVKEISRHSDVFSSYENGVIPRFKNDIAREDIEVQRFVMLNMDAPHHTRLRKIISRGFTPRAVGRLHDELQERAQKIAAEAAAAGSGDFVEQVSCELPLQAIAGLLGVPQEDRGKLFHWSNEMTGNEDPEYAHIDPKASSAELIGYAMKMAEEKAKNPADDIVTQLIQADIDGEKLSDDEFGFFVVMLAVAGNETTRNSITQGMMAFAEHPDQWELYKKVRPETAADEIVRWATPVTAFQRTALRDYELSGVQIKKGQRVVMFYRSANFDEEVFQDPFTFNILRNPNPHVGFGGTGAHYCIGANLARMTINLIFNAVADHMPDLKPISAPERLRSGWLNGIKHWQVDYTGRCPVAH

CYP144TR = molecular target: T3, CYP144TR (Mycobacterium tuberculosis, UniProt P9WPL1)
T3 sequence (P9WPL1 31-434 limits assumed): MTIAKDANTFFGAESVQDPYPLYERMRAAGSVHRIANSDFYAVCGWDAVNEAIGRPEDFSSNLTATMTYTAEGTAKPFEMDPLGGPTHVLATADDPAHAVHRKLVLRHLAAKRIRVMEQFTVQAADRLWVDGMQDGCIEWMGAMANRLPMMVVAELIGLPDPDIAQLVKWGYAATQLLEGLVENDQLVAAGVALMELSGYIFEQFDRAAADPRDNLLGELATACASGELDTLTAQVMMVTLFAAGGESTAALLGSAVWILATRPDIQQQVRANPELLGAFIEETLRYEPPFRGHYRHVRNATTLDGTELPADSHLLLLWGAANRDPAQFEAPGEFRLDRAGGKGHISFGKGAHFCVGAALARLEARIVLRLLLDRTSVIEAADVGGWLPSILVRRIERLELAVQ

[4] = tested on: CYP1A (combined CYP1A1 and CYP1A2); test: Human P450 inhibition in human liver microsomes, CYP1A (ethoxyresorufin); conditions: human, microsomes
[5] = Gibbs free energy of binding to CYP121 divided by number of heavy atoms (ΔG/HA)

T1 sequence (P9WPP7 whole entry): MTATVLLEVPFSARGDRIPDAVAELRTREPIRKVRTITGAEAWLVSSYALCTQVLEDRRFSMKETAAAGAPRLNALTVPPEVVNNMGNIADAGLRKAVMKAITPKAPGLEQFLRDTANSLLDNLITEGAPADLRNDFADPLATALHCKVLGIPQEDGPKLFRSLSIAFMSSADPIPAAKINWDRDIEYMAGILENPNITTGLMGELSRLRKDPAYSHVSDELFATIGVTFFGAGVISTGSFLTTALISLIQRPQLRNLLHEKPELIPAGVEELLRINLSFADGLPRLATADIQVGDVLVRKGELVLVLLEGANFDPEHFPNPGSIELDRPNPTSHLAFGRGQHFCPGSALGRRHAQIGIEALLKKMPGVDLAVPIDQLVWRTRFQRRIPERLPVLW

## Nc1[nH]nc(-c2cccc(O)c2)c1-c1ccc(O)cc1 [14b, 3-(5-Amino-4-(4-hydroxyphenyl)-1H-pyrazol-3-yl)phenol]
CYP121 [1]; [5]
  LE (ligand efficiency): 0.29

## Nc1[nH]nc(-c2cccc(F)c2)c1-c1ccc(O)cc1 [14c, 4-(5-Amino-3-(3-fluorophenyl)-1H-pyrazol-4-yl)phenol]
Mtb H37Rv
  MIC90: N
CYP121 [1]; [5]
  LE (ligand efficiency): 0.25

## Nc1[nH]nc(-c2ccc(O)cc2O)c1-c1ccc(O)cc1 [14d, 4-(5-amino-4-(4-hydroxyphenyl)-1H-pyrazol-3-yl)benzene-1,3-diol]
CYP121 [1]; [5]
  LE (ligand efficiency): 0.24

## Nc1[nH]ncc1-c1cccc(-c2cccnc2)c1 [18e, 4-(3-(Pyridin-3-yl)phenyl)-1H-pyrazol-5-amine]
CYP121 [2]
  Δλmax (change in wavelength of the Soret band): 0 nm

## Nc1[nH]ncc1-c1cccc(-c2ccncc2)c1 [18f, 4-(3-(Pyridin-4-yl)phenyl)-1H-pyrazol-5-amine]
CYP121 [2]
  Δλmax (change in wavelength of the Soret band): 1 nm

## Nc1[nH]ncc1-c1cccc(-c2ccc3[nH]ccc3c2)c1 [18g, 4-(3-(1H-Indol-5-yl)phenyl)-1H-pyrazol-5-amine]
CYP121 [2]
  Δλmax (change in wavelength of the Soret band): 0 nm

## Nc1[nH]ncc1-c1cccc(-c2ccc3cc[nH]c3c2)c1 [18h, 4-(3-(1H-Indol-6-yl)phenyl)-1H-pyrazol-5-amine]
CYP121 [2]
  Δλmax (change in wavelength of the Soret band): 0 nm

## Nc1[nH]ncc1-c1cccc(-c2cn[nH]c2)c1 [18i, 4-(3-(1H-Pyrazol-4-yl)phenyl)-1H-pyrazol-5-amine]
CYP121 [2]
  Δλmax (change in wavelength of the Soret band): 0 nm

## Nc1cccc(-c2cccc(-c3cn[nH]c3N)c2)c1 [19a, 4-(3′-Amino-[1,1′-biphenyl]-3-yl)-1H-pyrazol-5-amine]
Mtb H37Rv
  MIC90: N
CYP121 [1]
  LE (ligand efficiency): 0.35
CYP121 [3]; Protein-Ligand Ratio 1:0.5
  Monomer (%) of CYP121: 23%
  ligand binding stoichiometry, CYP121 Dimer: 0
  ligand binding stoichiometry, CYP121 Monomer: 0
CYP121 [3]; Protein-Ligand Ratio 1:1
  Monomer (%) of CYP121: 28%
  ligand binding stoichiometry, CYP121 Dimer: 0
  ligand binding stoichiometry, CYP121 Monomer: 0
CYP121 [3]; Protein-Ligand Ratio 1:25
  Monomer (%) of CYP121: 33%
  ligand binding stoichiometry, CYP121 Dimer: 2
  ligand binding stoichiometry, CYP121 Monomer: 1

## Nc1cccc(-c2cc(-c3cn[nH]c3N)ccc2OCc2ccccc2)c1 [19b, 4-(3′-Amino-6-(benzyloxy)-[1,1′-biphenyl]-3-yl)-1H-pyrazol-5-amine]
CYP121 [2]
  shifts in the CYP121 optical spectrum: type II shifts
CYP121 [1]; [5]
  LE (ligand efficiency): 0.23

## COc1ccc(-c2cn[nH]c2N)cc1-c1cccc(N)c1 [19c, 4-(3′-Amino-6-methoxy-[1,1′-biphenyl]-3-yl)-1H-pyrazol-5-amine]
CYP121 [2]
  shifts in the CYP121 optical spectrum: type II shifts
CYP121 [1]; [5]
  LE (ligand efficiency): 0.27

## COc1ccc(-c2n[nH]c(N)c2-c2cccc(-c3cccc(N)c3)c2)cc1 [24a, 4-(3′-Amino-[1,1′-biphenyl]-3-yl)-3-(4-methoxyphenyl)-1H-pyrazol-5-amine]
Mtb H37Rv; Mycobacterium tuberculosis, 336 h, read-out: MIC90
  MIC90: 50 µM (≈ 17.8 µg/mL)
CYP121 [2]
  shifts in the CYP121 optical spectrum: type II shifts
CYP121 [1]; [5]
  LE (ligand efficiency): 0.38
CYP121 [3]; Protein-Ligand Ratio 1:0.5
  Monomer (%) of CYP121: 19%
  ligand binding stoichiometry, CYP121 Dimer: 1
  ligand binding stoichiometry, CYP121 Monomer: 0
CYP121 [3]; Protein-Ligand Ratio 1:1
  Monomer (%) of CYP121: 16%
  ligand binding stoichiometry, CYP121 Dimer: 1
  ligand binding stoichiometry, CYP121 Monomer: 1
CYP121 [3]; Protein-Ligand Ratio 1:25
  Monomer (%) of CYP121: 16%
  ligand binding stoichiometry, CYP121 Dimer: 2
  ligand binding stoichiometry, CYP121 Monomer: 1

## Nc1cccc(-c2cc(-c3c(-c4ccc(O)cc4)n[nH]c3N)ccc2O)c1 [25b, 3′-Amino-5-(5-amino-3-(4-hydroxyphenyl)-1H-pyrazol-4-yl)-[1,1′-biphenyl]-2-ol]
CYP125
  Binding Mode, CYP125: N
CYP144TR
  Binding Mode, CYP144TR: N

## Oc1ccc(-c2n[nH]c(NCc3ccc(O)c(Br)c3)c2-c2ccc(O)cc2)cc1 [26b, 4,4′-(5-((3-Bromo-4-hydroxybenzyl)amino)-1H-pyrazole-3,4-diyl)diphenol]
CYP121 [1]; [5]
  LE (ligand efficiency): 0.22

## Oc1ccc(-c2n[nH]c(NCc3ccsc3)c2-c2ccc(O)cc2)cc1 [26c, 4,4′-(5-((Thiophen-3-ylmethyl)amino)-1H-pyrazole-3,4-diyl)diphenol]
CYP121 [1]; [5]
  LE (ligand efficiency): 0.25

## Oc1ccc(-c2n[nH]c(NCc3ccco3)c2-c2ccc(O)cc2)cc1 [26d, 4,4′-(5-((Furan-2-ylmethyl)amino)-1H-pyrazole-3,4-diyl)diphenol]
CYP121 [1]; [5]
  LE (ligand efficiency): 0.24

## Oc1ccc(-c2n[nH]c(NCc3ccc4[nH]ccc4c3)c2-c2ccc(O)cc2)cc1 [26e, 4,4′-(5-(((1H-Indol-5-yl)methyl)amino)-1H-pyrazole-3,4-diyl)diphenol]
CYP121 [1]; [5]
  LE (ligand efficiency): 0.19

## Oc1ccc(-c2n[nH]c(NCc3cccc4[nH]ncc34)c2-c2ccc(O)cc2)cc1 [26f, 4,4′-(5-(((1H-Indazol-4-yl)methyl)amino)-1H-pyrazole-3,4-diyl)diphenol]
CYP121 [1]; [5]
  LE (ligand efficiency): 0.20

## Oc1ccc(-c2n[nH]c(NCc3ccncc3)c2-c2ccc(O)cc2)cc1 [26g, 4,4′-(5-((Pyridin-4-ylmethyl)amino)-1H-pyrazole-3,4-diyl)diphenol]
CYP121 [1]; [5]
  LE (ligand efficiency): 0.18

## Oc1ccc(-c2n[nH]c(NCc3c[nH]cn3)c2-c2ccc(O)cc2)cc1 [26h, 4,4′-(5-(((1H-Imidazol-4-yl)methyl)amino)-1H-pyrazole-3,4-diyl)diphenol]
CYP121 [2]; ligand 100 μM, CYP121
  Δλmax (type II shift): +1.5 nm
CYP121 [1]; [5]
  LE (ligand efficiency): 0.19

## O=C(Nc1[nH]nc(-c2ccc(O)cc2)c1-c1ccc(O)cc1)c1ccccc1 [29a, N-(3,4-Bis(4-hydroxyphenyl)-1H-pyrazol-5-yl)benzamide]
CYP121 [1]; [5]
  LE (ligand efficiency): 0.18

## O=C(Nc1[nH]nc(-c2ccc(O)cc2)c1-c1ccc(O)cc1)c1ccc(O)cc1 [29b, N-(3,4-Bis(4-hydroxyphenyl)-1H-pyrazol-5-yl)-4-hydroxybenzamide]
CYP121 [1]; [5]
  LE (ligand efficiency): 0.19

## O=C(Nc1[nH]nc(-c2ccc(O)cc2)c1-c1ccc(O)cc1)c1ccncc1 [29c, N-(3,4-Bis(4-hydroxyphenyl)-1H-pyrazol-5-yl)isonicotinamide]
Mtb H37Rv
  MIC90: N
CYP121 [1]; [5]
  LE (ligand efficiency): 0.16

## CO[C@H]1/C=C/O[C@@]2(C)Oc3c(C)c(O)c4c(O)c(c(/C=N/N5CCN(C)CC5)c(O)c4c3C2=O)NC(=O)/C(C)=C\C=C\[C@H](C)[C@H](O)[C@@H](C)[C@@H](O)[C@@H](C)[C@H](OC(C)=O)[C@@H]1C [Rifampicin, reference compound]
Mtb H37Rv; Mycobacterium tuberculosis, 336 h
  MIC: 0.75 µM (≈ 0.617 µg/mL)

## O=c1cc(-c2ccccc2)oc2c1ccc1ccccc12 [alpha-naphthoflavone, reference compound]
[4]
  IC50: 59.7 nM

## Oc1ccc(Nc2[nH]nc(-c3ccc(O)cc3)c2-c2ccc(O)cc2)cc1 [compound 2, 4,4'-(5-((4-hydroxyphenyl)amino)-1H-pyrazole-3,4-diyl)diphenol]
CYP121 [1]; [5]
  LE (ligand efficiency): 0.24 and 0.23

## Nc1cc(-c2ccc(O)cc2)n[nH]1 [compound 3, 4-(5-Amino-1H-pyrazol-3-yl)phenol]
CYP121 [1]; [5]
  LE (ligand efficiency): 0.30

## Nc1[nH]ncc1-c1ccc(O)cc1 [compound 4, 4-(5-amino-1H-pyrazol-4-yl)phenol]
CYP121 [1]; [5]
  LE (ligand efficiency): 0.29

## Oc1ccc(Nc2cc(-c3ccc(O)cc3)n[nH]2)cc1 [compound 6, 4-((3-(4-Hydroxyphenyl)-1H-pyrazol-5-yl)amino)phenol]
CYP121 [1]; [5]
  LE (ligand efficiency): 0.34
CYP121 [3]; Protein-Ligand Ratio 1:0.5
  Monomer (%) of CYP121: 11%
  ligand binding stoichiometry, CYP121 Dimer: 0
  ligand binding stoichiometry, CYP121 Monomer: 0
CYP121 [3]; Protein-Ligand Ratio 1:1
  Monomer (%) of CYP121: 26%
  ligand binding stoichiometry, CYP121 Dimer: 0
  ligand binding stoichiometry, CYP121 Monomer: 0
CYP121 [3]; Protein-Ligand Ratio 1:25
  Monomer (%) of CYP121: 12%
  ligand binding stoichiometry, CYP121 Dimer: 1
  ligand binding stoichiometry, CYP121 Monomer: 1

## NC(=O)c1cc(Cl)ccc1N [compound 7]
CYP121 [1]; [5]
  LE (ligand efficiency): 0.30

## Nc1cccc(Cn2cncn2)c1 [compound 8]
CYP121 [1]; [5]
  LE (ligand efficiency): 0.29

## Cc1ccc2cc(N)ccc2n1 [compound 9]
CYP121 [1]; [5]
  LE (ligand efficiency): 0.39
